# From patent US20260262643A1, “HERBICIDAL BENZOXAZINES” (FMC CORPORATION, priority 2022, published 2026)
# Key:
# oat, wild [1] = assay: Test C preemergence; type: in vivo, Avena fatua
# How it was run: (§1)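 Soil-applied (pre) and foliar (post, 1–2 leaf, 2–10 cm) sprays; surfactant-containing non-phytotoxic solvent vehicle; loam/sand substrate. Readout: visual % control at 10 d, greenhouse, versus untreated.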
# soybean [2] = assay: Test C postemergence; type: in vivo, Glycine max; details: 10 days, 0 to 100 scale (0 no effect, 100 complete control)
# How it was run: as §1
# pigweed, palmer [3] = assay: Test C postemergence; type: in vivo, Amaranthus palmeri; details: 10 days, 0 to 100 scale (0 no effect, 100 complete control)
# How it was run: as §1
# ryegrass, Italian [4] = assay: Test C preemergence; type: in vivo, Lolium multiflorum
# How it was run: as §1
# galium = assay: Test C postemergence; type: in vivo, Galium aparine; details: 10 days, 0 to 100 scale (0 no effect, 100 complete control)
# How it was run: as §1
# blackgrass [5] = assay: Test C preemergence; type: in vivo, Alopecurus myosuroides
# How it was run: as §1
# pigweed, palmer [6] = assay: Test C preemergence; type: in vivo, Amaranthus palmeri
# How it was run: as §1
# horseweed = assay: Test C postemergence; type: in vivo, Erigeron canadensis; details: 10 days, 0 to 100 scale (0 no effect, 100 complete control)
# How it was run: as §1
# foxtail, giant [7] = assay: Test C preemergence; type: in vivo, Setaria faberi
# How it was run: as §1
# rice = assay: Test D flooded paddy test; type: in vivo, Oryza sativa; details: 250 g ai/ha, applied to paddy water, visual rating after 13 to 14 days, scale 0 to 100 (0 no effect, 100 complete control)
# How it was run: (§2)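 Plants at the 2-leaf stage were grown in pots flooded to 3 cm, and compound was applied directly into the paddy water, with depth kept throughout. After 13–14 days in a greenhouse, injury was rated visually against untreated controls on a 0–100 scale (100 = complete control); a dash means not tested.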
# corn [8] = assay: Test C preemergence; type: in vivo, Zea mays; details: Preemergence, 125 g ai/ha; 0 to 100 scale, 0 no effect, 100 complete control
# How it was run: as §1
# barnyardgrass [9] = assay: Test D flooded paddy test; type: in vivo, Echinochloa crus-galli; details: 250 g ai/ha, applied to paddy water, visual rating after 13 to 14 days, scale 0 to 100 (0 no effect, 100 complete control)
# How it was run: as §2
# sedge, umbrella = assay: Test D flooded paddy test; type: in vivo, Cyperus difformis; details: 250 g ai/ha, applied to paddy water, visual rating after 13 to 14 days, scale 0 to 100 (0 no effect, 100 complete control)
# How it was run: as §2
# barnyardgrass [10] = assay: Test C preemergence; type: in vivo, Echinochloa crusgalli
# How it was run: as §1
# kochia [11] = assay: Test C preemergence; type: in vivo, Bassia scoparia
# How it was run: as §1
# soybean [12] = assay: Test C preemergence; type: in vivo, Glycine max
# How it was run: as §1
# blackgrass [13] = assay: Test C postemergence; type: in vivo, Alopecurus myosuroides; details: 10 days, 0 to 100 scale (0 no effect, 100 complete control)
# How it was run: as §1
# foxtail, giant [14] = assay: Test C postemergence; type: in vivo, Setaria faberi; details: 10 days, 0 to 100 scale (0 no effect, 100 complete control)
# How it was run: as §1
# wheat [15] = assay: Test C preemergence; type: in vivo, Triticum aestivum
# How it was run: as §1
# ryegrass, Italian [16] = assay: Test C postemergence; type: in vivo, Lolium multiflorum; details: 10 days, 0 to 100 scale (0 no effect, 100 complete control)
# How it was run: as §1
# corn [17] = assay: Test C postemergence; type: in vivo, Zea mays; details: 10 days, 0 to 100 scale (0 no effect, 100 complete control)
# How it was run: as §1
# barnyardgrass [18] = assay: Test C postemergence; type: in vivo, Echinochloa crusgalli; details: 10 days, 0 to 100 scale (0 no effect, 100 complete control)
# How it was run: as §1
# ducksalad = assay: Test D flooded paddy test; type: in vivo, Heteranthera limosa; details: 250 g ai/ha, applied to paddy water, visual rating after 13 to 14 days, scale 0 to 100 (0 no effect, 100 complete control)
# How it was run: as §2
# kochia [19] = assay: Test C postemergence; type: in vivo, Bassia scoparia; details: 10 days, 0 to 100 scale (0 no effect, 100 complete control)
# How it was run: as §1
# oat, wild [20] = assay: Test C postemergence; type: in vivo, Avena fatua; details: 10 days, 0 to 100 scale (0 no effect, 100 complete control)
# How it was run: as §1
# wheat [21] = assay: Test C postemergence; type: in vivo, Triticum aestivum; details: 10 days, 0 to 100 scale (0 no effect, 100 complete control)
# How it was run: as §1
# ragweed [22] = assay: Test C preemergence; type: in vivo, Ambrosia artemisiifolia
# How it was run: as §1
# ragweed [23] = assay: Test C postemergence; type: in vivo, Ambrosia artemisiifolia; details: 10 days, 0 to 100 scale (0 no effect, 100 complete control)
# How it was run: as §1
# [24] = 500 g ai/ha, preemergence, 0 to 100 scale (0 no effect, 100 complete control)
# [25] = Preemergence, 125 g ai/ha, 0 to 100 scale, 0 no effect, 100 complete control
smiles,measurement,setting,value
COc1ccc(-n2cnc(C3CC3)n2)cc1C(=O)N1C[C@H](C)Oc2c(Cl)cccc21 [Compound 324],"Oat, Wild plant response rating","oat, wild [1]; [24]",90
same,"Plant response rating, Oat, Wild","oat, wild [1]; [25]",0
same,"Plant response rating, Soybean","soybean [2]; 500 g ai/ha, postemergence",100
same,"Plant response rating, Soybean","soybean [2]; Postemergence, 125 g ai/ha",100
same,"Plant response rating, Pigweed, Palmer","pigweed, palmer [3]; 500 g ai/ha, postemergence",100
same,"Plant response rating, Pigweed, Palmer","pigweed, palmer [3]; Postemergence, 125 g ai/ha",90
same,"Ryegrass, Italian plant response rating","ryegrass, Italian [4]; [24]",100
same,"Plant response rating, Ryegrass, Italian","ryegrass, Italian [4]; [25]",80
same,"Plant response rating, Galium","galium; 500 g ai/ha, postemergence",100
same,"Plant response rating, Galium","galium; Postemergence, 125 g ai/ha",100
same,Blackgrass plant response rating,blackgrass [5]; [24],90
same,"Plant response rating, Blackgrass",blackgrass [5]; [25],70
same,"Pigweed, Palmer plant response rating","pigweed, palmer [6]; [24]",100
same,"Plant response rating, Pigweed, Palmer","pigweed, palmer [6]; [25]",100
same,"Plant response rating, Horseweed","horseweed; 500 g ai/ha, postemergence",80
same,"Plant response rating, Horseweed","horseweed; Postemergence, 125 g ai/ha",60
same,"Foxtail, Giant plant response rating","foxtail, giant [7]; [24]",100
same,"Plant response rating, Foxtail, Giant","foxtail, giant [7]; [25]",90
same,"Plant response rating, Rice (Flood)",rice,10
same,"Plant response rating, Corn",corn [8],0
same,"Plant response rating, Barnyardgrass (Flood)",barnyardgrass [9],40
same,"Plant response rating, Sedge, Umbrella (Flood)","sedge, umbrella",98
same,Barnyardgrass plant response rating,barnyardgrass [10]; [24],100
same,"Plant response rating, Barnyardgrass",barnyardgrass [10]; [25],90
same,Kochia plant response rating,kochia [11]; [24],90
same,"Plant response rating, Kochia",kochia [11]; [25],90
same,Soybean plant response rating,soybean [12]; [24],90
same,"Plant response rating, Soybean",soybean [12]; [25],100
same,"Plant response rating, Blackgrass","blackgrass [13]; 500 g ai/ha, postemergence",90
same,"Plant response rating, Blackgrass","blackgrass [13]; Postemergence, 125 g ai/ha",90
same,"Plant response rating, Foxtail, Giant","foxtail, giant [14]; 500 g ai/ha, postemergence",90
same,"Plant response rating, Foxtail, Giant","foxtail, giant [14]; Postemergence, 125 g ai/ha",80
same,Wheat plant response rating,wheat [15]; [24],90
same,"Plant response rating, Wheat",wheat [15]; [25],10
same,"Plant response rating, Ryegrass, Italian","ryegrass, Italian [16]; 500 g ai/ha, postemergence",50
same,"Plant response rating, Ryegrass, Italian","ryegrass, Italian [16]; Postemergence, 125 g ai/ha",40
same,"Plant response rating, Corn","corn [17]; 500 g ai/ha, postemergence",90
same,"Plant response rating, Corn","corn [17]; Postemergence, 125 g ai/ha",70
same,"Plant response rating, Barnyardgrass","barnyardgrass [18]; 500 g ai/ha, postemergence",80
same,"Plant response rating, Barnyardgrass","barnyardgrass [18]; Postemergence, 125 g ai/ha",50
same,"Plant response rating, Ducksalad (Flood)",ducksalad,80
same,"Plant response rating, Kochia","kochia [19]; 500 g ai/ha, postemergence",100
same,"Plant response rating, Kochia","kochia [19]; Postemergence, 125 g ai/ha",90
same,"Plant response rating, Oat, Wild","oat, wild [20]; 500 g ai/ha, postemergence",70
same,"Plant response rating, Oat, Wild","oat, wild [20]; Postemergence, 125 g ai/ha",10
same,"Plant response rating, Wheat","wheat [21]; 500 g ai/ha, postemergence",30
same,"Plant response rating, Wheat","wheat [21]; Postemergence, 125 g ai/ha",30
same,Ragweed plant response rating,ragweed [22]; [24],90
same,"Plant response rating, Ragweed",ragweed [22]; [25],50
same,"Plant response rating, Ragweed","ragweed [23]; 500 g ai/ha, postemergence",70
same,"Plant response rating, Ragweed","ragweed [23]; Postemergence, 125 g ai/ha",60
